Source: patent US20140329858A1, “Cyclic Urea Derivatives As Androgen Receptor Antagonists” (priority 2011, published 2014)

Test system: Vcap cells
Assay: Dihydrotestosterone (DHT) mediated XTT cell proliferation assay for screening AR antagonists using Vcap cells
Format: cell-based
Details: Homo sapiens, 240 h, in the presence of 0.2 nM DHT, XTT readout on Day 10, IC50 curves from 8 concentrations
How it was run: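 VCaP cells, starved 5 days in phenol red-free DMEM with 8% charcoal-stripped serum, were plated and treated on Day 4 with compound (0.1 nM-30 μM, 8 concentrations) plus 0.2 nM DHT, redosed Day 7. On Day 10 viability was read by XTT at 465 nm; IC50 from sigmoidal dose-response fit.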

| Compound | IC50 [nM] |
| --- | --- |
| N#Cc1ccc(N2C(=O)N(c3ccc(S(N)(=O)=O)c(F)c3)[C@@H]3CCCC[C@H]32)cc1C(F)(F)F (racemic) [Example 67, Trans-4-(3-(4-cyano-3-(trifluoromethyl)phenyl)-2-oxooctahydro-1H-benzo[d]imidazol-1-yl)-2-fluorobenzenesulfonamide (±)] | 1090 |
| N#Cc1ccc(N2C(=O)N(c3ccc(N)c(F)c3)[C@@H]3CCCC[C@H]32)cc1C(F)(F)F (racemic) [Example 15, Trans-(4-(-3-(4-amino-3-fluorophenyl)-2-oxooctahydro-1H-benzo[d]imidazol-1-yl)-2-(trifluoromethyl)benzonitrile (±)] | 823 |
| N#Cc1ccc(N2C(=O)N(c3ccnc(C(N)=O)c3)[C@H]3CCCC[C@@H]32)cc1C(F)(F)F [Example 57, 4-((3aS,7aS)-3-(4-cyano-3-(trifluoromethyl)phenyl)-2-oxooctahydro-1H-benzo[d]imidazol-1-yl)picolinamide] | 265 |
| Cc1c(N2C(=O)N(c3ccc(C#N)c(C(F)(F)F)c3)[C@H]3CCCC[C@@H]32)ccc(C#N)c1Cl (racemic) [Example 42, Trans-2-chloro-4-(3-(4-cyano-3-(trifluoromethyl)phenyl)-2-oxooctahydro-1H-benzo[d]imidazol-1-yl)-3-methylbenzonitrile (±)] | 168 |
| N#Cc1ccc(N2C(=O)N(c3cc(Cl)cc(Cl)c3)[C@H]3CCCC[C@@H]32)cc1C(F)(F)F [Example 44, 4-((3aS,7aS)-3-(3,5-dichlorophenyl)-2-oxooctahydro-1H-benzo[d]imidazol-1-yl)-2-(trifluoromethyl)benzonitrile] | 96.4 |
| CNC(=O)c1ccc(N2C(=O)N(c3ccc(C#N)c(C(F)(F)F)c3)[C@@H]3CCCC[C@H]32)s1 (racemic) [Example 40, Trans-5-(3-(4-cyano-3-(trifluoromethyl)phenyl)-2-oxooctahydro-1H-benzo[d]imidazol-1-yl)-N-methylthiophene-2-carboxamide (±)] | > 10000 |
| CNC(=O)c1ccc(N2C(=O)N(c3ccc(C#N)c(C(F)(F)F)c3)[C@@H]3CCOC[C@H]32)cc1F (racemic) [Example 73, Trans-4-(1-(4-Cyano-3-(trifluoromethyl)phenyl)-2-oxohexahydropyrano[3,4-d]imidazol-3(2H)-yl)-2-fluoro-N-methylbenzamide (±)] | 2550 |
| N#Cc1ccc(N2C(=O)N(c3cccc(S(N)(=O)=O)n3)[C@@H]3CCCC[C@H]32)cc1C(F)(F)F (racemic) [Example 9, Trans-6-(3-(4-cyano-3-(trifluoromethyl)phenyl)-2-oxooctahydro-1H-benzo[c]imidazol-1-yl) pyridine-2-sulfonamide (±)] | > 10000 |
| CNC(=O)c1ccc(N2C(=O)N(c3ccc(C#N)c(C(F)(F)F)c3)[C@@H]3CCCCC[C@H]32)cc1F (racemic) [Example 80, Trans-4-(3-(4-cyano-3-(trifluoromethyl)phenyl)-2-oxooctahydrocyclohepta[d]imidazol-1(2H)-yl)-2-fluoro-N-methylbenzamide (±)] | 254 |
| N#Cc1ccc(N2C(=O)N(c3ccc(C(N)=O)c(F)c3)[C@H]3CCCC[C@@H]32)cc1C(F)(F)F [Example 31, 4-((3aS,7aS)-3-(4-cyano-3-(trifluoromethyl)phenyl)-2-oxooctahydro-1H-benzo[d]imidazol-1-yl)-2-fluorobenzamide] | 37.2 |
| N#Cc1ccc(N2C(=O)N(c3ccc(C(=O)N[C@@H]4CCOC4)c(F)c3)[C@@H]3CCCC[C@H]32)cc1C(F)(F)F (mixture of isomers) [Example 34, 4-((3aR,7aR)-3-(4-cyano-3-(trifluoromethyl)phenyl)-2-oxooctahydro-1H-benzo[d]imidazol-1-yl)-2-fluoro-N—((R)-tetrahydrofuran-3-yl)benzamide and 4-((3aS,7aS)-3-(4-cyano-3-(trifluoromethyl)phenyl)-2-oxooctahydro-1H-benzo[d]imidazol-1-yl)-2-fluoro-N—((R)-tetrahydrofuran-3-yl)benzamide] | 317 |
| CCOC(=O)c1ccc(N2C(=O)N(c3ccc(C#N)c(C(F)(F)F)c3)[C@@H]3CCCC[C@H]32)s1 (racemic) [Example 8, Trans-ethyl-5-(3-(4-cyano-3-(trifluoromethyl)phenyl)-2-oxooctahydro-1H-benzo[d]imidazol-1-yl)thiophene-2-carboxylate (±)] | > 10000 |
| N#Cc1ccc(N2C(=O)N(c3ccc(C(=O)NOCC4CCCO4)c(F)c3)[C@@H]3CCCC[C@H]32)cc1C(F)(F)F (mixture of isomers) [Example 27, Trans 4-(3-(4-cyano-3-(trifluoromethyl)phenyl)-2-oxooctahydro-1H-benzo[c]im-idazol-1-yl)-2-fluoro-N-((tetrahydrofuran-2-yl)methoxy)benzamide (±)] | 196 |

Same assay, conditions: in the presence of 0.2 nM DHT, XTT readout on Day 10, IC50 curves from 8 concentrations

| Compound | IC50 [nM] |
| --- | --- |
| CNC(=O)c1ccc(N2C(=O)N(c3ccc(C#N)c(C(F)(F)F)c3)[C@@H]3CCCCC[C@H]32)cc1F (relative stereo) [Example 80b, Trans-4-(3-(4-cyano-3-(trifluoromethyl)phenyl)-2-oxooctahydrocyclohepta[d]imidazol-1(2H)-yl)-2-fluoro-N-methylbenzamide (+)] | 2180 |
| N#Cc1ccc(N2C(=O)N(c3ccnc(F)c3)[C@@H]3CCCC[C@H]32)cc1C(F)(F)F (relative stereo) [Example 10b, Trans-4-(3-(2-fluoropyridin-4-yl)-2-oxooctahydro-1H-benzo[d]imidazol-1-yl)-2-(trifluoromethyl)benzonitrile (−)] | 280 |
| 4-((3aS,7aS)-3-(4-cyano-3-(trifluoromethyl)phenyl)-2-oxooctahydro-1H-benzo[d]imidazol-1-yl)-2-fluoro-N—((S)-tetrahydrofuran-3-yl)benzamide and 4-((3aS,7aS)-3-(4-cyano-3-(trifluoromethyl)phenyl)-2-oxooctahydro-1H-benzo[c]imidazol-1-yl)-2-fluoro-N—((R)-tetrahydrofuran-3-yl)benzamide [Example 35] | 236 |
